Test results published in patent US8071540B2, “Virus derived antimicrobial peptides” (priority 2007, dated 2011).
Where no end group is shown, it is not given here.

Test system: Burkholderia cepacia
Assay type: cell-based
Conditions: 25 μM peptide, organisms surviving, FIG. 8

## RWIRVVQRWCRAIRHIWRRIRQGLRRWLRVV [WLSA-5, RWIRVVQRWCRAIRHIWRRIRQGLRRWLRVV]
  killing of B. cepacia genomovars compared with LL37: equal to or better than LL-37 at killing all bacterial strains
